Entries after “also recorded” stand apart in the source; their conditions may differ.
How the values were obtained:
3′-UTR of human TNF-α = assay: Luciferase reporter assay, RAW264.7 cells with vs without the TNF-α 3′-UTR; type: cell-based; settings: mouse macrophage line RAW264.7, 16 h; FIG. 1
Protocol: To determine the involvement of the 3′-UTR in the action of the thalidomide analogs, their ability to inhibit reporter gene activity in cells containing the TNF-α3′-UTR versus a control vector was assessed. This cell-based assay utilized two stably transfected cell lines derived from the mouse macrophage line, RAW264.7. One line, designated “luciferase only” expressed a luciferase reporter construct without any UTR sequences. The other line, designated “luciferase+TNF-α UTR” expressed a luciferase reporter construct with the entire 3′-UTR of human TNF-α inserted directly downstream of the luciferase coding region. Compounds were added in a concentration-dependent manner, and at the end of the incubation period (16 h, 37° C., 5% CO2) the media was removed, cells were lysed and luciferase activity was assayed with Steady-glo luciferase assay reagent (Promega) according to the supplier's directions. Background was subtracted and data from this assay was expressed as a ratio of the +3′-UTR to −3′-UTR (control) values, and was expressed as a percent as shown in FIG. 1. In this manner, compounds that show a differential effect on the two cell lines, with and without a 3′-UTR, are highlighted. […] All agents lowered luciferase reporter activity in cells stably expressing the 3′-UTR.

TNF-α = assay: Inhibition of LPS-induced TNF-α secretion in human PBMC (ELISA); type: cell-based; settings: for IC50 / inhibition at 30 µM: Homo sapiens, LPS-induced TNF-α production in PBMC; for TNF-α inhibitory activity (in words): LPS-stimulated PBMC; for Fold more active than thalidomide 201: inhibition of TNF-α synthesis, from IC50 values
Protocol: (§1) The action of the these thiothalidomide analogs in inhibiting TNF-α secretion was assessed in human peripheral blood mononuclear cells (PBMC) and the results are shown in Table 1. Freshly prepared PBMCs were utilized in all studies. Blood, 40 ml, was drawn from a volunteer, immediately mixed with 50 U/ml Na heparin and was diluted to 50 ml total volume with sterile PBS. Samples, 20 ml, of this preparation then were layered on 20 ml Ficoll-Paque and were centrifuged (800 g, 20 min). The Ficoll/serum interface, containing PBMCs, was collected, diluted to 200 ml with PBS, and then was centrifuged (800 g, 15 min) to pellet the cells. Thereafter, the recovered pellet was re-suspended in 37° C. tissue culture medium (RPMI/1 mM Sodium pyruvate/10% heat inactivated FBS/2 mM Glutamax) and placed on ice. Recovered cells were counted, pipetted (200 ul of 5×10^5/ml) into 96 well plates, and incubated for an hour (37° C., 5% CO2). Thereafter, appropriate concentrations of test compounds or vehicle (10 ul DMSO) were added to duplicate wells. Following a further hour of incubation, a 10 ul sample of lipopolysaccharide (LPS) (100 ng/ml in supplemented medium) or vehicle was added to induce stimulated and unstimulated cells, respectively, and the cells were incubated overnight. Sixteen hours later, supernatants were collected for quantification of TNF-α levels by ELISA assay (Pierce-Endogen human TNF-α mini kit, Rockford, Ill.) and the use of specific capture and detection monoclonal antibodies, M303E and M302B (Pierce-Endogen), respectively. ELISA plates were read at λ=450 nm and TNF-α levels were determined from a six-point calibration curve that was run concurrently with the test samples. The effect of test drug concentrations on the cellular viability of PBMCs was assessed by MTS assay (Promega, Madison, Wis.) of the cells that provided the supernatant samples assayed for TNF-α levels, described above. It should be understood that this method can be used to test any of the disclosed compounds as a screening assay for readily determining their TNF-α modulating activity, and for selecting them for use in the disclosed method of treating a subject.

PBMC = assay: Cellular viability of PBMCs by MTS assay; type: cell-based, human
Protocol: as §1

rat aortic ring = assay: Rat aortic ring microvessel growth assay; type: cell-based; settings: 0.1-20 μg/ml daily for 4 days; FIGS. 2-11
Protocol: The angiogenesis modulating activity of representative compounds was assessed in a rat aortic ring microvessel growth assay. Briefly, twelve-well tissue culture plates were coated with 250 μl of Matrigel (Becton-Dickinson, Bedford, Mass.) and allowed to gel for 30 min at 37° C. and 5% CO2. Thoracic aortas were excised from 8- to 10-week-old male Sprague Dawley rats. After careful removal of fibroadipose tissues, the aortas were cut into 1-mm-long cross-sections, placed on Matrigel-coated wells, and covered with an additional 250 μl of Matrigel. After the second layer of Matrigel had set, the rings were covered with EGM-II and incubated overnight at 37° C. and 5% CO2. EGM-II consists of endothelial cell basal medium (EBM-II; Clonetics, San Diego, Calif.) plus endothelial cell growth factors provided as the EGM-II Bulletkit (Clonetics). The culture medium was subsequently changed to EBM-II supplemented with 2% fetal bovine serum, 0.25 μg/ml amphotericin B, and 10 μg/ml gentamicin. Aortic rings were treated daily with either the vehicle (0.5% DMSO), carboxyamidotriazole (CAI, 12 μg/ml), thalidomide or thalidomide analogs (0.1-20 μg/ml) for 4 days and photographed on the 5th day using a ×2.5 objective. CAI, a known antiangiogenic agent, was used at higher than clinically achievable concentration as a positive control. Experiments were repeated four times using aortas from four different rats. The area of angiogenic sprouting, reported in square pixels, was quantified using Adobe PhotoShop. Further details of the method are provided in Luzzio et al., J Med Chem.; 46:3793-9, 2003, which is incorporated by reference herein. It should be understood that this method can be used as an assay to rapidly select compounds having a desired angiogenic or anti-angiogenic effect, for example, for use in the disclosed methods of treating a subject.

| IC50 (TNF-α) [µM] | melting point [°C] | SMILES | Luciferase reporter activity, +3′-UTR versus −3′-UTR cells (in words) (3′-UTR of human TNF-α) | Inhibition of TNF-α secretion at 30 μM (in words) (TNF-α; 30 μM) | Concentration required for significant activity (TNF-α; inhibition of TNF-α secretion) [µM] | Toxicity / cytotoxicity (in words) (PBMC) | Cell viability at 0.3 μM (PBMC) [%] | Cell viability at 3 μM (PBMC) [%] | Cell viability at 30 μM (PBMC) [%] | inhibition at 30 µM (TNF-α; 30 μM) [%] | TNF-α inhibitory activity (in words) (TNF-α) | Fold more active than thalidomide 201 (TNF-α) | Angiogenic modulating activity (in words) (rat aortic ring) |
| --- | --- | --- | --- | --- | --- | --- | --- | --- | --- | --- | --- | --- | --- |
| ~200 | – | O=C1CCC(N2C(=O)c3ccccc3C2=O)C(=O)N1 (centres unmarked) [Compound 201, Thalidomide] | lacked activity at 50 μM | entirely lacked activity | 100 | – | – | – | – | – | – | – | – |
| 8 | 103 | S=C1CCCC(=S)N1 [Compound 219, 2,6-Piperidinedithione] | differential effect on the two cell lines in a dose-dependent manner | – | – | lack of toxicity; also recorded: without toxicity | 99 | 98 | > 100 | 75 | potent inhibitory effect; also recorded: potently inhibited TNF-α secretion | 25 fold | – |
| 11 | – | O=C1NC(=S)CCC1N1C(=O)c2ccccc2C1=S (centres unmarked) [Compound 215, 2,3-dihydro-3-thioxo-2-(2-oxo-6-thioxo-3-piperidinyl)-1H-isoindol-1-one] | differential effect on the two cell lines in a dose-dependent manner | – | – | without toxicity | 94 | 87 | > 100 | 61 | potently inhibited TNF-α secretion | – | – |
| 6 | – | O=C1c2ccccc2C(=S)N1C1CCC(=S)NC1=S (centres unmarked) [Compound 216, 2,3-Dihydro-3-thioxo-2-(2,6-dithioxo-3-piperidinyl)-1H-isoindol-1-one] | differential effect on the two cell lines in a dose-dependent manner | – | – | without accompanying toxicity | 90 | 86 | 94 | 79 | potently inhibited TNF-α secretion | over 30 fold | potent anti-antigiogenic activity at higher concentrations and angiogenic activity at lower concentrations |

From patent US8546430B2, “Thalidomide analogs” (P2D, Inc., priority 2003, dated 2013)
